Tested on: healthy donor PBMC (CD8+ T cells)
Format: cell-based, human
Conditions: of one 48 well plate; two rounds of stimulation with peptide-pulsed autologous DCs; HLA-matched healthy donor

Row | Sequence | wells showing clear peptide tetramer positive CD8+ T cell population [wells]
1 | KLFAAETLK [NSP13-134] | 11
2 | TLVPQEHYV [NSP13-242] | 48
3 | VYIGDPAQL (listed as Homo Sapiens) [NSP13-400, NSP13 derived HLA-A2402 peptide] | 9
